{
  "source": "patent US20090227503A1",
  "about": "“PARATHYROID HORMONE TREATMENT FOR ENHANCED ALLOGRAFT AND TISSUE-ENGINEERED RECONSTRUCTION OF BONE DEFECTS” (UNIVERSITY OF ROCHESTER, priority 2008, published 2009)",
  "key": {"[1]": {"test_system": "critical 4 mm femoral defects", "test": "PLA and PLA/βTCP scaffold reconstruction of critical 4 mm femoral defects, micro-CT and torsion (Example 2)", "assay_type": "in vivo, mouse", "text": "(scale bars 25 in B & C represent 200 microns. Arrow head in panel C points to βTCP particles). Titanium pins 30 were passed through the lumen of the scaffolds 15 (panel D) to be used for fixation of the scaffolds when implanted as standalone femoral graft substitutes in critical 4 mm femoral defects in our previously established mouse model (see Example 1). The grafted animals were either treated with daily (5 days/week) injections of PTH or left untreated (Controls). […] When grafts were harvested at 9 weeks and following micro-CT imaging, scaffold-grafted femurs were tested in torsion at a rate of 1°/sec. […] The scaffold-grafted femurs were tested in torsion to determine their biomechanical properties, including maximum torque (panels A&B), torsional rigidity (panels C&D), and ultimate normalized rotation or twist (panels E&F). Panels A, C, and E show the average properties for both scaffold types in control and PTH treated animals. Panels B, D, and F show the maximum torque, torsional rigidity, and ultimate twist, respectively, of specimens that developed a bridging union compared to non-union control and PTH-treated specimens. Data are presented as mean+SEM. Asterisk indicates significant differences from control (p<0.05)."}, "femoral allograft": {"test_system": "femoral allograft", "test": "Mouse femoral allograft, micro-CT of callus (Example 1)", "assay_type": "in vivo, C57B1/6 mice", "method": "Femoral allograft surgeries were performed on C57B1/6 mice as previously described. Briefly, a 4 mm mid-diaphyseal segment was removed by osteotomizing the femur and a processed allograft was implanted and secured in place with a stainless steel intramedullary (IM) pin. After 1 week, 8 mice were given daily subcutaneously injections of 0.4 mg/kg PTH (1-34) (Forteo, Eli Lilly and Company, Indianapolis, Ind.) while 5 mice with grafts were given the same volume of saline daily, serving as controls. Animals were sacrificed 6 weeks after surgery, the grafted femurs were carefully dissected and cleaned without disrupting the callus, and the IM pin was carefully removed. The femurs were then stored frozen at −80° C. until evaluation. Specimens were scanned at 10.5 micron isotropic resolution using a Scanco VivaCT 40 (Scanco Medical AG, Bassersdorf, Switzerland). Callus bone volume adjacent to the graft was manually segmented from all axial slices that contained grafted bone. The mineralized callus volume, callus bone mineral density (BMD) and total mineral content (BMC) were determined."}, "[2]": {"test_system": "intact contralateral femurs", "test": "Micro-CT of intact contralateral femurs (Example 4)", "assay_type": "in vivo, mice", "details": "6 weeks"}, "grafted femurs": {"test_system": "grafted femurs", "test": "Torsion testing of grafted femurs (Example 4)", "assay_type": "in vivo, mice", "method": "Four-mm long bone allografts were harvested from donor mice, and were processed and implanted into intecalary defects 195 in the femur of other mice and secured in place using a stainless steel intramedullary pin 190, as shown in FIG. 13. One week after surgery, daily injections of 40 μg/kg hrPTH (1-34) (Lilly, Inc., Indianapolis, Ind.) were initiated in half of the mice, while the others received injections of saline control. Weekly x-rays were taken to monitor progression (Faxitron X-Ray LLC, Wheeling, Ill.).\nOne cohort of the study groups used 14 mice from each treatment (PTH and control) for imaging and mechanical material testing and were sacrificed 6 weeks after surgery. Each femur was harvested by disarticulating the hip and knee and removing the intramedullary stainless-steel pin. Specimens were moistened with saline and frozen at −20° C. until thawed for micro-CT imaging and torsion testing. Specimens were scanned at […] isotropic resolution using the Scanco VivaCT 40 (Scanco Medical AG, Bassersdorf, Switzerland). From these 3D images, the graft and callus bone volumes (BVGraft, BVCallus) were measured by manual segmentation, followed by standardized thresholding at a grayscale corresponding to 750 mgHA/cm^3. The cross-sectional polar moment of inertias (PMI) were computed for each slice throughout the grafted region and the maximum, minimum and average PMI (PMIMax, PMIMin, PMIAve) were investigated to determine their contribution to the biomechanics of the grafted femurs.\nThe Union Ratio was also calculated. The Union Ratio measures the graft surface area upon which mineralized callus has formed. If the voxels adjacent to the graft surface are boney callus, the area of that region of the graft is measured and normalized to the total graft surface area. Imaging data (not shown) indicated the bare surface of the graft in blue, with regions of union to the callus depicted as red. Each half (proximal and distal) of the graft was evaluated separately and the lesser ratio of union area to total graft surface area was given as the Union Ratio for that specimen. Callus formation that bridged from host-to-host over the graft was determined by evaluating serial axial cross sections from micro-CT images and given a binary result. These samples were then mechanically tested in torsion. Yield torque (TYield), ultimate torque (TUlt), torsional rigidity (TR), toughness (or work to failure) and the twist at ultimate torque were determined for each specimen. Finally, the mode of failure for each specimen was determined using an x-ray image analysis (not shown)."}, "[3]": {"details": "0.4 mg/kg PTH (1-34) s.c. daily from week 1, 6 weeks after surgery, Mean (Standard Deviation)"}, "[4]": {"details": "vs saline, 6 weeks after surgery"}, "[5]": {"details": "PTH contralateral femur, mean, N = 8"}, "[6]": {"details": "PTH Graft, 6 weeks after implantation, mean"}},
  "data": [
    {"smiles": "CC[C@H](C)[C@H](NC(=O)[C@H](CCC(=O)O)NC(=O)[C@H](CO)NC(=O)[C@@H](NC(=O)[C@@H](N)CO)C(C)C)C(=O)N[C@@H](CCC(N)=O)C(=O)N[C@@H](CC(C)C)C(=O)N[C@@H](CCSC)C(=O)N[C@@H](Cc1cnc[nH]1)C(=O)N[C@@H](CC(N)=O)C(=O)N[C@@H](CC(C)C)C(=O)NCC(=O)N[C@@H](CCCCN)C(=O)N[C@@H](Cc1cnc[nH]1)C(=O)N[C@@H](CC(C)C)C(=O)N[C@@H](CC(N)=O)C(=O)N[C@@H](CO)C(=O)N[C@@H](CCSC)C(=O)N[C@@H](CCC(=O)O)C(=O)N[C@@H](CCCN=C(N)N)C(=O)N[C@H](C(=O)N[C@@H](CCC(=O)O)C(=O)N[C@@H](Cc1c[nH]c2ccccc12)C(=O)N[C@@H](CC(C)C)C(=O)N[C@@H](CCCN=C(N)N)C(=O)N[C@@H](CCCCN)C(=O)N[C@@H](CCCCN)C(=O)N[C@@H](CC(C)C)C(=O)N[C@@H](CCC(N)=O)C(=O)N[C@@H](CC(=O)O)C(=O)N[C@H](C(=O)N[C@@H](Cc1cnc[nH]1)C(=O)N[C@@H](CC(N)=O)C(=O)N[C@@H](Cc1ccccc1)C(=O)O)C(C)C)C(C)C", "note": "[PTH, PTH (1-34)]", "values": [
      {"measurement": "animals that developed a mineralized callus bridging the defect (union)", "setting": "[1]; 9 weeks post-reconstruction, both scaffolds, daily (5 days/week) PTH, none in controls", "result": 30, "unit": "%"},
      {"measurement": "torsion behavior of bridged grafts", "setting": "[1]; 9 weeks, torsion at 1°/sec", "result": "prototypical brittle bone torsion behavior"},
      {"measurement": "biomechanical properties of scaffold-grafted femurs (maximum torque, torsional rigidity, ultimate twist)", "setting": "[1]; 9 weeks, vs control", "result": "improved the biomechanical properties of the scaffold-grafted femurs especially in femurs with bridging unions"},
      {"measurement": "volume of the mineralized callus", "setting": "[1]; PLA and PLA/βTCP scaffolds, 6 and 9 weeks post-reconstruction, vs control", "result": "increased the volume of the mineralized callus regardless of the scaffold type"},
      {"measurement": "Callus BMC", "setting": "femoral allograft; [3]", "result": "2.77 (0.53) mg HA"},
      {"measurement": "Callus BMD", "setting": "femoral allograft; [3]", "result": "665 (17) mg HA/cm^3"},
      {"measurement": "Callus Bone Volume", "setting": "femoral allograft; [3]", "result": "4.17 (0.80) mm^3"},
      {"measurement": "samples with callus bridging the graft from host to host", "setting": "femoral allograft; 6 weeks after surgery, saline 20%", "result": 63, "unit": "%"},
      {"measurement": "increase in callus bone volume", "setting": "femoral allograft; [4]", "result": 1.9, "unit": "fold"},
      {"measurement": "net increase in total callus mineral content", "setting": "femoral allograft; [4]", "result": 60, "unit": "%"},
      {"measurement": "reduction in callus BMD", "setting": "femoral allograft; [4]", "result": 13, "unit": "%"},
      {"measurement": "contralateral intact femur's diaphyseal BMCPTH:BMCSaline", "setting": "[2]", "result": 1.17},
      {"measurement": "A-P Periosteal Diameter", "setting": "[2]; [5]", "result": 1.30, "unit": "mm"},
      {"measurement": "Cortical Bone Density", "setting": "[2]; [5]", "result": 1179, "unit": "mgHA/cc"},
      {"measurement": "Cortical Thickness", "setting": "[2]; [5]", "result": 0.199, "unit": "mm"},
      {"measurement": "Cross-Sectional Area", "setting": "[2]; [5]", "result": 0.82, "unit": "mm²"},
      {"measurement": "M-L Periosteal Diameter", "setting": "[2]; [5]", "result": 1.85, "unit": "mm"},
      {"measurement": "Polar Moment of Inertia", "setting": "[2]; [5]", "result": 0.36, "unit": "mm^4"},
      {"measurement": "Grafted femur mode of failure after torsion testing: Early Union (number of femurs)", "setting": "grafted femurs; 6 weeks", "result": 3},
      {"measurement": "Grafted femur mode of failure after torsion testing: Mature Union (number of femurs)", "setting": "grafted femurs; 6 weeks", "result": 3},
      {"measurement": "Grafted femur mode of failure after torsion testing: Pre-Union (number of femurs)", "setting": "grafted femurs; 6 weeks", "result": 8},
      {"measurement": "rate of twist at TUlt as fraction of control grafted specimens", "setting": "grafted femurs; 6 weeks", "result": "⅓"},
      {"measurement": "TR", "setting": "grafted femurs; [6]", "result": 1175, "unit": "N*mm^2/Rad"},
      {"measurement": "Tult", "setting": "grafted femurs; [6]", "result": 13.2, "unit": "N*mm"},
      {"measurement": "Twist at Tult", "setting": "grafted femurs; [6]", "result": 0.020, "unit": "Rad/mm"},
      {"measurement": "Tyield", "setting": "grafted femurs; [6]", "result": 10.5, "unit": "N*mm"},
      {"measurement": "Work to TUlt", "setting": "grafted femurs; [6]", "result": 0.167, "unit": "Nmm*Rad/mm"},
      {"measurement": "Work to TYield", "setting": "grafted femurs; [6]", "result": 0.0687, "unit": "Nmm*Rad/mm"},
      {"measurement": "specimens that failed in a manner not simply graft-pullout from the host", "setting": "grafted femurs; saline only 3, not statistically significant", "result": "Six"},
      {"measurement": "Yield Torque, greater by", "setting": "grafted femurs; vs saline grafted femurs, 6 weeks", "result": 72, "unit": "%"},
      {"measurement": "Ultimate Torque, greater by", "setting": "grafted femurs; vs saline grafted femurs, 6 weeks, not significant", "result": 23, "unit": "%"},
      {"measurement": "torsional rigidity of grafted femurs", "setting": "grafted femurs; vs saline, 6 weeks", "result": "doubled"}
    ]}
  ]
}
